Each molecule was assayed against ATR kinase (full-length ATR) (Homo sapiens (Human), UniProt Q13535) (assay: ATR inhibition assay (radioactive-phosphate incorporation)). Details: not given.
Sequence of ATR kinase (full-length ATR) (Q13535 whole entry): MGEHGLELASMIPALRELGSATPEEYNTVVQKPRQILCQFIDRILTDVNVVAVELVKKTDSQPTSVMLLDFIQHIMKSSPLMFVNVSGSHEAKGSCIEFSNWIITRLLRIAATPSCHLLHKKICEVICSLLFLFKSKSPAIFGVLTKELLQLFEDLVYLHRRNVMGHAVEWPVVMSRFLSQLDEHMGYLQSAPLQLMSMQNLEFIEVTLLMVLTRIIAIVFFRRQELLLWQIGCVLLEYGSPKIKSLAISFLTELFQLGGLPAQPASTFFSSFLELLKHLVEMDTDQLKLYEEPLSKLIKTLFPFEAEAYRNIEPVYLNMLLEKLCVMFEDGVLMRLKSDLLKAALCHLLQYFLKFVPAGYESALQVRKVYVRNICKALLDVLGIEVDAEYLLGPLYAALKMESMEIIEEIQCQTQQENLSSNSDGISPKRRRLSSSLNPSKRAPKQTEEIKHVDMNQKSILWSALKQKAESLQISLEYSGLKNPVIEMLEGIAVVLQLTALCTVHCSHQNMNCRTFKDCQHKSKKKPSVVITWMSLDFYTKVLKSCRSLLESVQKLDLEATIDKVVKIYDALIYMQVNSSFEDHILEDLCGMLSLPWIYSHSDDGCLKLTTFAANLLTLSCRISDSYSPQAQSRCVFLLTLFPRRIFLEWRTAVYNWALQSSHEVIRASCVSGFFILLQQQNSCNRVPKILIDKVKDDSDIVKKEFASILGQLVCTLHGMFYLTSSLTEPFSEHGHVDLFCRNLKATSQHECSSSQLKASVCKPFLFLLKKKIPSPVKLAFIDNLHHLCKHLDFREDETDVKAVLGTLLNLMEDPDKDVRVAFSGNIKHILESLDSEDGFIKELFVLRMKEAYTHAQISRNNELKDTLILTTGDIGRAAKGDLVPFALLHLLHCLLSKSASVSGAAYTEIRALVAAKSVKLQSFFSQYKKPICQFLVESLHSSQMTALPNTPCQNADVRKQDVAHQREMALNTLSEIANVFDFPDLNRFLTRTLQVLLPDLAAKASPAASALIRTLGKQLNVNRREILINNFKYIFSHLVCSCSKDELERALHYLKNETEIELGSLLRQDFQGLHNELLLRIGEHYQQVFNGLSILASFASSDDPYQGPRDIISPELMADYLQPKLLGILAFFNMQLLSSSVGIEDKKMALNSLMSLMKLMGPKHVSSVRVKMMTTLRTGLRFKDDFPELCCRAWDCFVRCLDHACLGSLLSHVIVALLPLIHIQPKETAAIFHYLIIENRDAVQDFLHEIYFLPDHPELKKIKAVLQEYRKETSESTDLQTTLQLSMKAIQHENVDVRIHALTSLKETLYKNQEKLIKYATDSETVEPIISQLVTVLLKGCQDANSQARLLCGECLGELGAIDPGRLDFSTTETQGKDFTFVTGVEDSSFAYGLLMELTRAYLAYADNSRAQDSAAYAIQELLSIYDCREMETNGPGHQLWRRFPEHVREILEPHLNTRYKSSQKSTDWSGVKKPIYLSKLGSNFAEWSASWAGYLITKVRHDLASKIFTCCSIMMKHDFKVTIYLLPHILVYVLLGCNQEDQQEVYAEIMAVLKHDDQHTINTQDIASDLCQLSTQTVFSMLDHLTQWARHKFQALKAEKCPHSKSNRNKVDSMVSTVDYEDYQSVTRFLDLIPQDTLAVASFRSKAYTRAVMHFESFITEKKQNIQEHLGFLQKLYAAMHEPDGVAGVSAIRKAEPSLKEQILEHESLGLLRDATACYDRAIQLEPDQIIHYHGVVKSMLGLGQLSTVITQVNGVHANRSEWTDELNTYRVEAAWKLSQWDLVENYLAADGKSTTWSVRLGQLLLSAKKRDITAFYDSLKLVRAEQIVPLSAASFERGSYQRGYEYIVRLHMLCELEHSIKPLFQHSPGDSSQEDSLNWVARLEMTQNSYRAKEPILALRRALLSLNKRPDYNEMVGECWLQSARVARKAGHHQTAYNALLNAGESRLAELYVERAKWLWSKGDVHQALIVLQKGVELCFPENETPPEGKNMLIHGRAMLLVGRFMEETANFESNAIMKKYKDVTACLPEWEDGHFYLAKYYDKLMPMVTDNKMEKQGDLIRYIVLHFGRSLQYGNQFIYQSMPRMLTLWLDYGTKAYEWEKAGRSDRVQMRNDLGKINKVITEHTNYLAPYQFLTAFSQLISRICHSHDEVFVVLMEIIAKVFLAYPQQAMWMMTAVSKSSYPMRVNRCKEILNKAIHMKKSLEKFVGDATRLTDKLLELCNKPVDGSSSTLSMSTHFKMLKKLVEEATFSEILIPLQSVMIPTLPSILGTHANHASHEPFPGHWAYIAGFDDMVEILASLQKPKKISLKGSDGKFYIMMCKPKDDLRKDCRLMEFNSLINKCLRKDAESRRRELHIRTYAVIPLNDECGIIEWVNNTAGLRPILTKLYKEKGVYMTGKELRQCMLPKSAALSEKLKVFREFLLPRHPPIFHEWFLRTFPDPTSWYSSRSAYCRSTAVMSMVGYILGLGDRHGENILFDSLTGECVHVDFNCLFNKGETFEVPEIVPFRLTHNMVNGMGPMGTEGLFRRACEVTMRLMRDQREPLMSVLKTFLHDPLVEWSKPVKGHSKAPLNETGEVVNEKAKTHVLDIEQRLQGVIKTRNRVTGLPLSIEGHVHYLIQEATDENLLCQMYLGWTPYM
Assay type: biochemical
Procedure, shortened: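 Ki(app) was fitted by non-linear regression to background-corrected initial rates. Full-length ATR (5 nM) phosphorylated 800 μM peptide using 10 μM [γ-33P]ATP at 25° C in Tris/HCl pH 7.5 buffer with MgCl2, DTT and 7% DMSO. After 10-minute compound pre-incubation and 24-hour reaction, phosphocellulose filters were scintillation counted.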
`CN(C)CCc1cnn(-c2ccncc2NC(=O)c2c(N)nn3cc(F)cnc23)c1` [I-N-9, 2-amino-N-(4-(4-(2-(dimethylamino)ethyl)-1H-pyrazol-1-yl)pyridin-3-yl)-6-fluoropyrazolo[1,5-a]pyrimidine-3-carboxamide] was tested, and the Ki was 1000 to 5000 nM. In the case of `CN1CCC(c2ccncc2NC(=O)c2c(N)nn3cc(F)cnc23)CC1` [I-C-1, 2-amino-6-fluoro-N-(4-(1-methylpiperidin-4-yl)pyridin-3-yl)pyrazolo[1,5-a]pyrimidine-3-carboxamide], the Ki is reported as 1000 to 5000 nM.

Same assay, conditions: Ki(app), 5 nM full-length ATR, 10 μM ATP, 25° C.
With `Nc1nn2cc(F)cnc2c1C(=O)Nc1cncc(F)c1N1CCN2C(=O)CCC[C@@H]2C1` [I-N-280, (R)-2-amino-6-fluoro-N-(5-fluoro-4-(6-oxohexahydro-1H-pyrido[1,2-a]pyrazin-2(6H)-yl)pyridin-3-yl)pyrazolo[1,5-a]pyrimidine-3-carboxamide] the Ki was 10 to 1000 nM. For `CC1(C)CN(C(=O)C2CCN(c3c(F)cncc3NC(=O)c3c(N)nn4cc(F)cnc34)CC2)CCN1` [I-G-27, 2-amino-N-(4-(4-(3,3-dimethylpiperazine-1-carbonyl)piperidin-1-yl)-5-fluoropyridin-3-yl)-6-fluoropyrazolo[1,5-a]pyrimidine-3-carboxamide], the Ki was 10 to 1000 nM. Work on `Nc1nn2cc(F)cnc2c1C(=O)Nc1cncc(F)c1N1CCC(C(=O)N2CC(F)C2)CC1` [I-G-74, 2-amino-6-fluoro-N-(5-fluoro-4-(4-(3-fluoroazetidine-1-carbonyl)piperidin-1-yl)pyridin-3-yl)pyrazolo[1,5-a]pyrimidine-3-carboxamide] yielded a Ki of 10 to 1000 nM. With `CC1(N2CCN(C(=O)C3CCN(c4c(F)cncc4NC(=O)c4c(N)nn5cc(F)cnc45)CC3)CC2)COC1` [I-G-92, 2-amino-6-fluoro-N-(5-fluoro-4-(4-(4-(3-methyloxetan-3-yl)piperazine-1-carbonyl)piperidin-1-yl)pyridin-3-yl)pyrazolo[1,5-a]pyrimidine-3-carboxamide] the Ki was 10 to 1000 nM. Molecule `CN1CCN(c2c(F)cncc2NC(=O)c2c(N)nn3cc(Cl)cnc23)CC1` [I-N-14, 2-amino-6-chloro-N-(5-fluoro-4-(4-methylpiperazin-1-yl)pyridin-3-yl)pyrazolo[1,5-a]pyrimidine-3-carboxamide] has a Ki of 10 to 1000 nM. Molecule `CCn1cncc1-c1ccncc1NC(=O)c1c(N)nn2cc(F)cnc12` [I-C-80, 2-amino-N-(4-(1-ethyl-1H-imidazol-5-yl)pyridin-3-yl)-6-fluoropyrazolo[1,5-a]pyrimidine-3-carboxamide] has a Ki of 10 to 1000 nM. For `CCOc1ccncc1NC(=O)c1c(N)nn2cc(Cl)cnc12` [I-O-56, 2-amino-6-chloro-N-(4-ethoxypyridin-3-yl)pyrazolo[1,5-a]pyrimidine-3-carboxamide], the Ki was 10 to 1000 nM. `CN(C)CCCNC(=O)C1CCN(c2c(F)cncc2NC(=O)c2c(N)nn3cc(F)cnc23)CC1` [I-G-26, 2-amino-N-(4-(4-((3-(dimethylamino)propyl)carbamoyl)piperidin-1-yl)-5-fluoropyridin-3-yl)-6-fluoropyrazolo[1,5-a]pyrimidine-3-carboxamide] was tested, and the Ki was 10 to 1000 nM. For `COc1cc(Cl)ncc1NC(=O)c1c(N)nn2cc(CC#N)cnc12` [I-O-27, 2-amino-N-(6-chloro-4-methoxypyridin-3-yl)-6-(cyanomethyl)pyrazolo[1,5-a]pyrimidine-3-carboxamide], the Ki was < 10 nM. With `N#CCc1cnc2c(C(=O)Nc3cnccc3Oc3ccccc3)c(N)nn2c1` [I-O-25, 2-amino-6-(cyanomethyl)-N-(4-phenoxypyridin-3-yl)pyrazolo[1,5-a]pyrimidine-3-carboxamide] the Ki was < 10 nM. For `Nc1nn2cc(F)cnc2c1C(=O)Nc1cnccc1-n1ccnc1C(F)(F)F` [I-N-219, 2-amino-6-fluoro-N-(4-(2-(trifluoromethyl)-1H-imidazol-1-yl)pyridin-3-yl)pyrazolo[1,5-a]pyrimidine-3-carboxamide], the Ki was 10 to 1000 nM. `Nc1nn2cc(F)cnc2c1C(=O)Nc1cnccc1-c1cccnc1F` [I-C-35, 2-amino-6-fluoro-N-(2-fluoro-[3,4′-bipyridin]-3′-yl)pyrazolo[1,5-a]pyrimidine-3-carboxamide] gave a Ki of 10 to 1000 nM. Work on `Cn1ccnc1-c1ccncc1NC(=O)c1c(N)nn2cc(F)cnc12` [I-C-55, 2-amino-6-fluoro-N-(4-(1-methyl-1H-imidazol-2-yl)pyridin-3-yl)pyrazolo[1,5-a]pyrimidine-3-carboxamide] yielded a Ki of 10 to 1000 nM. `Nc1nn2cc(F)cnc2c1C(=O)Nc1cncc(F)c1N1CCC(S(=O)(=O)N2CCC2)CC1` [I-N-169, 2-amino-N-(4-(4-(azetidin-1-ylsulfonyl)piperidin-1-yl)-5-fluoropyridin-3-yl)-6-fluoropyrazolo[1,5-a]pyrimidine-3-carboxamide] showed a Ki of 10 to 1000 nM. With `Nc1nn2cc(F)cnc2c1C(=O)Nc1cncc(F)c1N1CCC(n2ccnc2)CC1` [I-N-288, N-(4-(4-(1H-imidazol-1-yl)piperidin-1-yl)-5-fluoropyridin-3-yl)-2-amino-6-fluoropyrazolo[1,5-a]pyrimidine-3-carboxamide] the Ki was 10 to 1000 nM. With `Nc1nn2cc(Cl)cnc2c1C(=O)Nc1cnccc1OCCO` [I-O-66, 2-amino-6-chloro-N-(4-(2-hydroxyethoxy)pyridin-3-yl)pyrazolo[1,5-a]pyrimidine-3-carboxamide] the Ki was 10 to 1000 nM. `COCCN1CCN(c2ccncc2NC(=O)c2c(N)nn3cc(F)cnc23)CC1` [I-N-22, 2-amino-6-fluoro-N-(4-(4-(2-methoxyethyl)piperazin-1-yl)pyridin-3-yl)pyrazolo[1,5-a]pyrimidine-3-carboxamide] was tested, and the Ki was 10 to 1000 nM. Work on `CN(C)C(=O)C1CCCN(c2ccncc2NC(=O)c2c(N)nn3cc(F)cnc23)C1` (stereo not shown) [I-N-290, 2-amino-N-(4-(3-(dimethylcarbamoyl)piperidin-1-yl)pyridin-3-yl)-6-fluoropyrazolo[1,5-a]pyrimidine-3-carboxamide] yielded a Ki of 10 to 1000 nM. In the case of `Cc1ncccc1-c1ccncc1NC(=O)c1c(N)nn2cc(F)cnc12` [I-C-20, 2-amino-6-fluoro-N-(2-methyl-[3,4′-bipyridin]-3′-yl)pyrazolo[1,5-a]pyrimidine-3-carboxamide], the Ki is reported as 10 to 1000 nM. With `Nc1nn2cc(F)cnc2c1C(=O)Nc1cncc(F)c1N1CCN(C(=O)C23CCN(CC2)CC3)CC1` [I-N-134, 2-amino-6-fluoro-N-(5-fluoro-4-(4-(quinuclidine-4-carbonyl)piperazin-1-yl)pyridin-3-yl)pyrazolo[1,5-a]pyrimidine-3-carboxamide] the Ki was 10 to 1000 nM. With `CN1CCN(C(=O)C2(C)CCN(c3c(F)cncc3NC(=O)c3c(N)nn4cc(F)cnc34)CC2)CC1` [I-G-54, 2-amino-6-fluoro-N-(5-fluoro-4-(4-methyl-4-(4-methylpiperazine-1-carbonyl)piperidin-1-yl)pyridin-3-yl)pyrazolo[1,5-a]pyrimidine-3-carboxamide] the Ki was 10 to 1000 nM. Work on `N#CCc1cnc2c(C(=O)Nc3cnccc3O[C@@H]3CCNC3)c(N)nn2c1` [I-O-87, (R)-2-amino-6-(cyanomethyl)-N-(4-(pyrrolidin-3-yloxy)pyridin-3-yl)pyrazolo[1,5-a]pyrimidine-3-carboxamide] yielded a Ki of 10 to 1000 nM. With `Nc1nn2cc(Cl)cnc2c1C(=O)Nc1cncc(F)c1N1CCC(C(=O)N2CCN3CCC2CC3)CC1` [I-G-87, N-(4-(4-(1,4-diazabicyclo[3.2.2]nonane-4-carbonyl)piperidin-1-yl)-5-fluoropyridin-3-yl)-2-amino-6-chloropyrazolo[1,5-a]pyrimidine-3-carboxamide] the Ki was 10 to 1000 nM. `Cc1nc(C(=O)N2CCN(C)CC2)ccc1-c1ccncc1NC(=O)c1c(N)nn2cc(F)cnc12` [I-C-39, 2-amino-6-fluoro-N-(2-methyl-6-(4-methylpiperazine-1-carbonyl)-[3,4′-bipyridin]-3′-yl)pyrazolo[1,5-a]pyrimidine-3-carboxamide] was tested, and the Ki was 10 to 1000 nM. In the case of `Nc1nn2cc(Cl)cnc2c1C(=O)Nc1cnccc1N1CCN(C2CC2)CC1` [I-N-64, 2-amino-6-chloro-N-(4-(4-cyclopropylpiperazin-1-yl)pyridin-3-yl)pyrazolo[1,5-a]pyrimidine-3-carboxamide], the Ki is reported as 10 to 1000 nM. `CN1CC(NC(=O)C2CCN(c3c(F)cncc3NC(=O)c3c(N)nn4cc(F)cnc34)CC2)C1` [I-G-23, 2-amino-6-fluoro-N-(5-fluoro-4-(4-((1-methylazetidin-3-yl)carbamoyl)piperidin-1-yl)pyridin-3-yl)pyrazolo[1,5-a]pyrimidine-3-carboxamide] was tested, and the Ki was 10 to 1000 nM. For `COc1ccncc1NC(=O)c1c(N)nn2cc(F)cnc12` [I-O-4, 2-amino-6-fluoro-N-(4-methoxypyridin-3-yl)pyrazolo[1,5-a]pyrimidine-3-carboxamide], the Ki was 10 to 1000 nM. `CS(=O)(=O)C1CCN(c2c(Cl)cncc2NC(=O)c2c(N)nn3cc(F)cnc23)C1` (stereo not shown) [I-N-287, 2-amino-N-(5-chloro-4-(3-(methylsulfonyl)pyrrolidin-1-yl)pyridin-3-yl)-6-fluoropyrazolo[1,5-a]pyrimidine-3-carboxamide] was tested, and the Ki was 10 to 1000 nM. `Nc1nn2cc(F)cnc2c1C(=O)Nc1cnccc1N1CCCC2(COC2)C1` [I-N-253, N-(4-(2-oxa-6-azaspiro[3.5]nonan-6-yl)pyridin-3-yl)-2-amino-6-fluoropyrazolo[1,5-a]pyrimidine-3-carboxamide] showed a Ki of 10 to 1000 nM. In the case of `Nc1nn2cc(F)cnc2c1C(=O)Nc1cncc(Cl)c1N1CCCC1` [I-N-281, 2-amino-N-(5-chloro-4-(pyrrolidin-1-yl)pyridin-3-yl)-6-fluoropyrazolo[1,5-a]pyrimidine-3-carboxamide], the Ki is reported as 10 to 1000 nM. `Nc1nn2cc(F)cnc2c1C(=O)Nc1cnccc1OC1CCC(C(=O)O)CC1` (stereo not shown) [I-O-8, 4-((3-(2-amino-6-fluoropyrazolo[1,5-a]pyrimidine-3-carboxamido)pyridin-4-yl)oxy)cyclohexanecarboxylic acid] showed a Ki of 10 to 1000 nM. `Nc1nn2cc(F)cnc2c1C(=O)Nc1cnccc1N1CCN(C2COC2)C2CC21` (stereo not shown) [I-N-31, 2-amino-6-fluoro-N-(4-(5-(oxetan-3-yl)-2,5-diazabicyclo[4.1.0]heptan-2-yl)pyridin-3-yl)pyrazolo[1,5-a]pyrimidine-3-carboxamide] was tested, and the Ki was 1000 to 5000 nM.

Source: patent US10392391B2 (Vertex Pharmaceuticals Incorporated, priority 2012, dated 2019)
